“And” between values parts separate entries of the source, which are not always exact repeats. Equal entries are not always repeated. Toxic doses and inconclusive results are not listed. No stated cut-off is given here; in the data, active means T/C of 150% or more; inactive means T/C below 125%.
Tested on: L1210 leukemia ip in BDF1 mice, survival T/C
Assay: NCI In Vivo Anticancer Drug Screen. Data for tumor model L1210 Leukemia (intraperitoneal) in B6D2F1 (BDF1) mice
Settings: endpoint: mean survival time, higher = longer survival
How it was run: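 Transplanted-tumor mice were given test agent; controls received vehicle only. Survival readings from the two groups were divided (treated over control).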

[1] = dose: 37.5 mg/kg/injection, schedule: Q01DX009 (ip), vehicle: Klucel (hydroxypropylcellulose) (HPC)
[2] = dose: 75.0 mg/kg/injection, schedule: Q01DX009 (ip), vehicle: Klucel (hydroxypropylcellulose) (HPC)
[3] = dose: 100.0 mg/kg/injection, schedule: Q01DX001 (ip), vehicle: saline
[4] = dose: 200.0 mg/kg/injection, schedule: Q01DX001 (ip), vehicle: saline
[5] = dose: 400.0 mg/kg/injection, schedule: Q01DX001 (ip), vehicle: saline
[6] = dose: 100.0 mg/kg/injection, schedule: Q01DX009 (ip), vehicle: Klucel (hydroxypropylcellulose) (HPC)
[7] = dose: 200.0 mg/kg/injection, schedule: Q01DX001 (ip), vehicle: saline with Tween-80
[8] = dose: 200.0 mg/kg/injection, schedule: Q01DX009 (ip), vehicle: Klucel (hydroxypropylcellulose) (HPC)
[9] = dose: 400.0 mg/kg/injection, schedule: Q01DX009 (ip), vehicle: Klucel (hydroxypropylcellulose) (HPC)
[10] = dose: 100.0 mg/kg/injection, schedule: Q04DX003 (ip), vehicle: saline with Tween-80

Measured: T/C

CCCOC(=O)C(C)(O)C(Cl)c1ccccc1 (stereo not given)
inactive: [1] 96 % of control | dose: 50.0 mg/kg/injection, schedule: Q01DX001 (ip), vehicle: saline 104 % of control | dose: 58.0 mg/kg/injection, schedule: Q01DX001 (ip), vehicle: saline 108 % of control | [2] 100 % of control | dose: 88.0 mg/kg/injection, schedule: Q01DX001 (ip), vehicle: saline 107 % of control | [3] 103 % of control | dose: 100.0 mg/kg/injection, schedule: Q04DX002 (ip), vehicle: saline 109 % of control and 114 % of control | dose: 133.0 mg/kg/injection, schedule: Q01DX001 (ip), vehicle: saline 103 % of control | dose: 150.0 mg/kg/injection, schedule: Q01DX009 (ip), vehicle: Klucel (hydroxypropylcellulose) (HPC) 104 % of control | [4] 106 % of control and 109 % of control | dose: 200.0 mg/kg/injection, schedule: Q04DX002 (ip), vehicle: saline 117 % of control | dose: 300.0 mg/kg/injection, schedule: Q01DX001 (ip), vehicle: saline 98 % of control | dose: 300.0 mg/kg/injection, schedule: Q01DX009 (ip), vehicle: Klucel (hydroxypropylcellulose) (HPC) 104 % of control | [5] 96 % of control | dose: 400.0 mg/kg/injection, schedule: Q04DX002 (ip), vehicle: saline 105 % of control and 118 % of control

CCOC(=O)C(=O)Nc1ccccc1-c1ccccc1
inactive: dose: 100.0 mg/kg/injection, schedule: Q04DX003 (ip), vehicle: saline 102 % of control | dose: 200.0 mg/kg/injection, schedule: Q04DX003 (ip), vehicle: saline 98 % of control | dose: 400.0 mg/kg/injection, schedule: Q04DX003 (ip), vehicle: saline 101 % of control

O=C(/C=C(\C(=O)c1ccccc1)c1ccccc1)c1ccccc1
inactive: dose: 50.0 mg/kg/injection, schedule: Q04DX003 (ip), vehicle: Klucel (hydroxypropylcellulose) (HPC) 95 % of control | [3] 92 % of control | [6] 95 % of control | dose: 100.0 mg/kg/injection, schedule: Q04DX003 (ip), vehicle: Klucel (hydroxypropylcellulose) (HPC) 101 % of control | [7] 90 % of control | [4] 95 % of control | [8] 102 % of control | dose: 200.0 mg/kg/injection, schedule: Q04DX003 (ip), vehicle: Klucel (hydroxypropylcellulose) (HPC) 102 % of control | [9] 98 % of control

Cc1ccc(NC(=S)Nc2ccccc2F)cc1
inactive: dose: 100.0 mg/kg/injection, schedule: Q01DX001 (ip), vehicle: saline with Tween-80 94 % of control and 100 % of control | dose: 100.0 mg/kg/injection, schedule: Q04DX002 (ip), vehicle: saline with Tween-80 100 % of control and 104 % of control | [7] 98 % of control and 100 % of control | dose: 200.0 mg/kg/injection, schedule: Q04DX002 (ip), vehicle: saline with Tween-80 95 % of control | dose: 400.0 mg/kg/injection, schedule: Q01DX001 (ip), vehicle: saline with Tween-80 96 % of control and 103 % of control | dose: 400.0 mg/kg/injection, schedule: Q04DX002 (ip), vehicle: saline with Tween-80 92 % of control and 104 % of control

CCCCCCOC(CN(C)C)C(Cl)(Cl)Cl (stereo not given)
inactive: dose: 100.0 mg/kg/injection, schedule: Q01DX009 (ip), vehicle: saline with Tween-80 101 % of control | [10] 93 % of control | dose: 200.0 mg/kg/injection, schedule: Q01DX009 (ip), vehicle: saline with Tween-80 98 % of control | dose: 200.0 mg/kg/injection, schedule: Q04DX003 (ip), vehicle: saline with Tween-80 95 % of control | dose: 400.0 mg/kg/injection, schedule: Q04DX003 (ip), vehicle: saline with Tween-80 98 % of control

N#Cc1c(Br)n(C2OC(CO)C(O)C2O)c2ncnc(N)c12 (stereo not given)
inactive: [3] 123 % of control | dose: 178.0 mg/kg/injection, schedule: Q01DX001 (ip), vehicle: saline 104 % of control and 115 % of control | dose: 267.0 mg/kg/injection, schedule: Q01DX001 (ip), vehicle: saline 110 % of control and 117 % of control | [5] 112 % of control and 121 % of control | dose: 600.0 mg/kg/injection, schedule: Q01DX001 (ip), vehicle: saline 114 % of control

CC(=O)O[C@@H]1[C@H]2O[C@H]2[C@H]2O[C@@]2(COC(=O)c2ccccc2)[C@H]1OC(C)=O
inactive: dose: 100.0 mg/kg/injection, schedule: Q01DX015 (ip), vehicle: carboxymethylcellulose (CMC) 108 % of control | dose: 200.0 mg/kg/injection, schedule: Q01DX015 (ip), vehicle: carboxymethylcellulose (CMC) 107 % of control | dose: 400.0 mg/kg/injection, schedule: Q01DX015 (ip), vehicle: carboxymethylcellulose (CMC) 90 % of control

O=C(c1ccccc1Cl)N(Cc1ccccc1)c1ccccc1
inactive: [6] 102 % of control | [8] 103 % of control | [9] 100 % of control

Cc1ccc(NC(=O)Nc2cccc3ccccc23)cc1
inactive: dose: 12.0 mg/kg/injection, schedule: Q01DX009 (ip), vehicle: gum acacia 108 % of control | dose: 12.5 mg/kg/injection, schedule: Q04DX003 (ip), vehicle: gum acacia 91 % of control | dose: 25.0 mg/kg/injection, schedule: Q01DX009 (ip), vehicle: gum acacia 103 % of control | dose: 25.0 mg/kg/injection, schedule: Q04DX003 (ip), vehicle: gum acacia 93 % of control | dose: 50.0 mg/kg/injection, schedule: Q01DX009 (ip), vehicle: gum acacia 94 % of control | dose: 50.0 mg/kg/injection, schedule: Q04DX003 (ip), vehicle: gum acacia 98 % of control

Cc1scc[n+]1Cc1ccccc1[N+](=O)[O-]
inactive: dose: 5.0 mg/kg/injection, schedule: Q01DX001 (ip), vehicle: saline 109 % of control | dose: 10.0 mg/kg/injection, schedule: Q01DX001 (ip), vehicle: saline 109 % of control | dose: 20.0 mg/kg/injection, schedule: Q01DX001 (ip), vehicle: saline 105 % of control | dose: 40.0 mg/kg/injection, schedule: Q01DX001 (ip), vehicle: saline 109 % of control | dose: 80.0 mg/kg/injection, schedule: Q01DX001 (ip), vehicle: saline 100 % of control

C=C1CC(C)(c2ccc(S(=O)(=O)N3CCCC3)cc2)OC1=O (stereo not given)
inactive: dose: 18.0 mg/kg/injection, schedule: Q01DX009 (ip), vehicle: Klucel (hydroxypropylcellulose) (HPC) 108 % of control | [1] 95 % of control | [2] 104 % of control | dose: 87.5 mg/kg/injection, schedule: Q01DX009 (ip), vehicle: Klucel (hydroxypropylcellulose) (HPC) 104 % of control

CC(C)(C)CC(C)(C)c1ccc(Oc2ccc([N+](=O)[O-])cc2S(=O)(=O)O)cc1
inactive: [10] 97 % of control

O=C1CSCC(=O)O1
inactive: dose: 50.0 mg/kg/injection, schedule: Q01DX009 (ip), vehicle: Klucel (hydroxypropylcellulose) (HPC) 97 % of control | [6] 89 % of control | [8] 86 % of control

CCOC(=O)N1c2ccc(Cl)cc2C=CC1C#N (stereo not given)
inactive: dose: 100.0 mg/kg/injection, schedule: Q01DX009 (ip), vehicle: gum acacia 91 % of control | dose: 100.0 mg/kg/injection, schedule: Q04DX003 (ip), vehicle: gum acacia 103 % of control | dose: 200.0 mg/kg/injection, schedule: Q01DX009 (ip), vehicle: gum acacia 91 % of control | dose: 200.0 mg/kg/injection, schedule: Q04DX003 (ip), vehicle: gum acacia 97 % of control | dose: 400.0 mg/kg/injection, schedule: Q04DX003 (ip), vehicle: gum acacia 92 % of control

CCOS(=O)(=O)c1ccc([N+](=O)[O-])cc1[N+](=O)[O-]
inactive: dose: 100.0 mg/kg/injection, schedule: Q01DX009 (ip), vehicle: saline 97 % of control | dose: 200.0 mg/kg/injection, schedule: Q01DX009 (ip), vehicle: saline 92 % of control

From PubChem BioAssay AID248 (DTP/NCI, 2004)
